In patent US5079257A, “Indoloquinone compounds” (priority 1986, dated 1992):
In brackets after ≈: the same amount, converted by molar mass. Where two headings read alike, the source gives them in different places.

Legend:
[1] = Half-wave reduction potentials / polarography (University of Utrecht); type: physicochemical; conditions: for E1/2, halve wave reduction potential: Table IA, only the first (quinone) reduction potential
From the text: *The halve wave reduction potentials (E1/2) have been determined at the
Pharmaceutical Laboratory of University of Utrecht. Only the first
(quinone) reduction potential has been given.
Additional evidence for the occurrence of a bioreductive activation mechanism during the cytotoxic action of indoloquinones (II) was obtained via electrochemical studies, which have been carried out at the Pharmaceutical Laboratory of the University of Utrecht. […]

[2] = tested on: R-1 cells (Rhabdomyosarcoma Cells); test: R-1 activity (bioliquid assay), cytotoxicity; type: cell-based; conditions: Rhabdomyosarcoma cell
From the text: The indoloquinones II (formula II) have been tested in respect of their cytotoxic activity against L1210 cells and R-1 cells (Rhabdomyosarcoma Cells) in a bioliquid assay at the department of oncology of the Free University of Amsterdam (Table I). […] (Table II). Eight indoloquinones (E.O. 1, E.O. 2, E.O. 4, E.O. 4A, E.O. 8, E.O. 9, E.O. 33 and E.O. 35) have been tested in a panel of five human tumour lines (TNO Rijswijk; Table III).
For the determination of the R-1 activity, Rhabdomyosarcoma cells were brought into Falcon multiwells (growth area: 9.6 cm^2) (~10^6 cells per dish) containing 3 ml of Dulbecco's medium supplemented with 10% Foeto Calf Serum (FCS). […] Thereupon the drug solution was removed and the cells were covered with fresh medium. After 48 hours the cells were trypsinized and counted on a Sysmex microcell counter (CC110).
(§1) The in vitro L1210 and R-1 activities of the indoloquinones (formula III), were also determined in the bioliquid assays as described above.

L1210 cells = test: L1210 activity (bioliquid assay), cytotoxicity; type: cell-based; conditions: for IC50: Mus musculus
From the text: The indoloquinones II (formula II) have been tested in respect of their cytotoxic activity against L1210 cells and R-1 cells (Rhabdomyosarcoma Cells) in a bioliquid assay at the department of oncology of the Free University of Amsterdam (Table I). In addition to this seven compounds (E.O. 1, E.O. 2, E.O. 4, E.O. 7, E.O. 9, E.O. 16 and E.O. 17) have been tested on L1210 activity in a clonogenic assay at TNO, Rijswijk. Further, the lowest active doses of the compounds E.O. 1, E.O. 2, E.O. 4 and E.O. 9 have been determined at TNO Rijswijk, according to the method described by Lamberts et al. [Oncology, 40, 301 (1983)]. (Table II). Eight indoloquinones (E.O. 1, E.O. 2, E.O. 4, E.O. 4A, E.O. 8, E.O. 9, E.O. 33 and E.O. 35) have been tested in a panel of five human tumour lines (TNO Rijswijk; Table III). From the latter group three indoloquinones (E.O. 1, E.O. 4 and E.O. 9) have been selected for a cytotoxicity study, involving five slowly growing human tumour lines (University of Freiburg; Table IV).
For this purpose, L1210 cells were grown, as suspension, in Falcon multi-wells (growth area: 9.6 cm^2) using RPMI supplemented with 15% FCS and 2-mercapto-ethanol (60 μmol) as medium. In this medium, the cells were continuously incubated with the compound to be tested at 37° C. in an atmosphere of 5% CO2 in humidified air for 48 hours. Thereupon they were counted on a Sysmex microcell counter (CC110).
as §1

MCF7 breast cancer cells = test: In vitro panel of human tumour lines (TNO): MCF-7; type: cell-based; conditions: about 72 hours; note: key: -: no inhibition of cell growth; +: total cell-kill
Method: (§2) Compounds E.O. 1, E.O. 2, E.O. 4, E.O. 4A, E.O. 8, E.O. 9, […], E.O. 33, and E.O. 35 were tested for their activity against five human tumour cell lines at the Radiobiological Institute TNO Rijswijk.
(§3) The new in vitro prescreen uses human tumour clones; it was set up by Dr. P. Lelieveld at TNO Rijswijk and comprises testing compounds in a bioliquid assay for their cytostatic activity against the following five human tumour lines:
(§4) After a continuous exposure to the drugs to be tested and to Adriamycin in `24 well tissue culture clusters, type 3524 (Costar)`, the remaining cells are fixed and stained. Using increasing drug concentrations the inhibiting concentration can be estimated qualitatively.
(§5) Cells: the human tumour cells are maintained in Dulbecco's medium supplemented with 10 percent foetal calf serum.
(§6) M and W cell suspensions: 10^5 cells/ml.
(§7) The cells were grafted into 16 mm wells for 48 hours (0.5 ml cell suspension per well was used).
(§8) Drugs: the compound to be tested was dissolved in appropriate concentrations in a mixture of Hepes-buffered Hanks' balanced salt solution and ethanol. The drug solutions (0.05 ml) were added to the different wells. The final ethanol concentration in each well was less than one percent.
(§9) The cells were continuously incubated with the compound under test at 37° in an atmosphere of 10 percent CO2 in humidified air for about 72 hours.
(§10) Determination of the inhibiting dose: the cells were fixed and stained with a solution of crystal violet in methanol/formaldehyde.

[3] = tested on: T 24 cells; bladder carcinoma; test: In vitro panel of human tumour lines (TNO): T 24; type: cell-based; conditions: about 72 hours; note: key: -: no inhibition of cell growth; +: total cell-kill
Method: as §2, §3, §4, §5
(§11) A, T and Z cell suspensions: 5·10^4 cells/ml
as §7, §8, §9, §10

WiDr cells; colon tumour = test: In vitro panel of human tumour lines (TNO): WiDr; type: cell-based; conditions: about 72 hours; note: key: -: no inhibition of cell growth; +: total cell-kill
Method: as §2, §3, §4, §5, §6, §7, §8, §9, §10

[4] = tested on: A 204 cells; rhabdomyosarcoma; test: In vitro panel of human tumour lines (TNO): A 204; type: cell-based; conditions: about 72 hours; note: key: -: no inhibition of cell growth; +: total cell-kill
Method: as §2, §3, §4, §5, §11, §7, §8, §9, §10

IgR37 cells melanoma = test: In vitro panel of human tumour lines (TNO): IgR-37; type: cell-based; conditions: about 72 hours; note: key: -: no inhibition of cell growth; +: total cell-kill
Method: as §2, §3, §4, §5, §11, §7, §8, §9, §10

[5] = Table IA, para-indoloquinone diesters, read-out: ID-50 R-1
[6] = L1210, 48 h, Table IA, para-indoloquinone diesters, read-out: ID-50 L1210

COC(=O)/C=C/c1[nH]c2c(c1C(=O)OC)C(=O)C(OC)=CC2=O [E.O. 29, Methyl 5-methoxy-3-methoxycarbonyl-2-[1H-indole-4,7-dione]acrylate]
E1/2, halve wave reduction potential [1]: -211 mV
IC50 [2, 5]: 4.9 µg/mL (≈ 15.3 µM)
IC50 (L1210 cells; [6]): 2.2 µg/mL (≈ 6.89 µM)

N.N.[Cl][Pt][Cl] [Cisplatin, reference compound]
in vitro activity score, MCF-7 (MCF7 breast cancer cells; 0.01 μg/ml): -
in vitro activity score, MCF-7 (MCF7 breast cancer cells; 0.1 μg/ml): -
in vitro activity score, MCF-7 (MCF7 breast cancer cells; 1.0 μg/ml): -
in vitro activity score, T 24 ([3]; 0.01 μg/ml): -
in vitro activity score, T 24 ([3]; 0.1 μg/ml): -
in vitro activity score, T 24 ([3]; 10 μg/ml): +
in vitro activity score, WiDr (WiDr cells; colon tumour; 0.01 μg/ml): -
in vitro activity score, WiDr (WiDr cells; colon tumour; 0.1 μg/ml): -
in vitro activity score, WiDr (WiDr cells; colon tumour; 1.0 μg/ml): -
in vitro activity score, WiDr (WiDr cells; colon tumour; 10 μg/ml): +
in vitro activity score, A 204 ([4]; 0.01 μg/ml): -
in vitro activity score, A 204 ([4]; 0.1 μg/ml): -
in vitro activity score, A 204 ([4]; 10 μg/ml): +
in vitro activity score, IgR-37 (IgR37 cells melanoma; 0.01 μg/ml): -
in vitro activity score, IgR-37 (IgR37 cells melanoma; 0.1 μg/ml): -
in vitro activity score, IgR-37 (IgR37 cells melanoma; 10 μg/ml): +

Cn1c(/C=C/CO)c(CO)c2c1C(=O)C=C(N1CCC(O)CC1)C2=O [E.O. 11, 3-Hydroxymethyl-5-(4-hydroxypiperidino)-1-methyl-2-[1H-indole-4,7-dione]prop-β-en-α-ol]
half-wave potential E1.2, wave I ([1]; pH = 8 vs Ag/AgCl): -430 mV
IC50 ([2]; Table I, bioliquid assay, read-out: ID-50 R-1): > 10 µg/mL
IC50 ([2]; Table VI, read-out: ID-50 R-1): > 10 µg/mL
IC50 (L1210 cells; L1210, Table I, bioliquid assay, 48 hours, read-out: ID-50 L1210): > 10 µg/mL
ID-50 L1210 (L1210 cells; Table VI, 2880 min): > 10 µg/mL

CCC1(O)CC2CN(CCc3c([nH]c4ccccc34)C(C(=O)OC)(c3cc4c(cc3OC)N(C=O)C3C(O)(C(=O)OC)C(OC(C)=O)C5(CC)C=CCN6CCC43C65)C2)C1 (stereo not drawn) [Vincrist., reference compound]
in vitro activity score, T 24 ([3]; 0.01 μg/ml): -
in vitro activity score, T 24 ([3]; 0.1 μg/ml): +
in vitro activity score, WiDr (WiDr cells; colon tumour; 0.01 μg/ml): +
in vitro activity score, WiDr (WiDr cells; colon tumour; 0.1 μg/ml): +
in vitro activity score, IgR-37 (IgR37 cells melanoma; 0.01 μg/ml): +
in vitro activity score, IgR-37 (IgR37 cells melanoma; 0.1 μg/ml): +

COC(=O)/C=C/c1c(C(=O)OC)c2c(n1C)C(=O)C=C(OC)C2=O [E.O. 14, Methyl 5-methoxy-3-methoxycarbonyl-1-methyl-2-[1H-indole-4,7-dione]acrylate]
E1/2, halve wave reduction potential [1]: -243 mV
IC50 [2, 5]: > 10 µg/mL
IC50 (L1210 cells; [6]): 0.8 µg/mL (≈ 2.4 µM)

COC(=O)/C=C/c1c(C(=O)OC)c2c(n1C)C(=O)C(C)=C(N1CC1)C2=O [E.O. 34, Methyl 5-aziridino-1,6-dimethyl-3-methoxycarbonyl-2-[1H-indole-4,7-dione]acrylate]
E1/2, halve wave reduction potential [1]: -239 mV
IC50 ([2]; read-out: ID-50 R-1, Table IA, para-indoloquinone diesters): 2.8 µg/mL (≈ 7.81 µM)
IC50 (L1210 cells; L1210, 48 h, read-out: ID-50 L1210, Table IA, para-indoloquinone diesters): 2.7 µg/mL (≈ 7.53 µM)

COC(=O)/C=C/c1c(C(=O)OC)c2c(n1C)C(=O)C=C(N1CCOCC1)C2=O [E.O. 55, Methyl 3-methoxycarbonyl-1-methyl-5-morpholino-2-[1H-indole-4,7-dione]acrylate]
E1/2, halve wave reduction potential [1]: -240 mV
IC50 [2, 5]: 8.9 µg/mL (≈ 22.9 µM)
IC50 (L1210 cells; [6]): 1.4 µg/mL (≈ 3.6 µM)
